Data as given in patent US11549123B2, “Plant EPSP synthases and methods of use” (PIONEER HI-BRED INTERNATIONAL, INC., priority 2015, dated 2023).

Assays:
[1] = system: Glycine max (93Y21) cotyledon hairy roots; test: Hairy root growth of transformed soybean cotyledons on 25 uM glyphosate; format: cell-based
[2] = target: T1, Zea mays EPSPS variant Zm-P107L (Zea mays, UniProt O24566, P106L); test: Rapid two-rate method for (kcat/KM)*KI, Zm-P107L; format: biochemical
T1 construct: native maize plus P107L; E. coli BL21(DE3), Ni-NTA purified
Text: There are several practical considerations for accurately estimating (kcat/KM)*KI with the rapid method. […] 2) The inhibitor concentration must be adjusted so as to obtain a degree of inhibition that minimally amplifies the error in the term v0-vi in Equation 3. If inhibition is too little, v0-vi will be small, and the error in the multiplier vi×v0/(v0-vi) will be large. […] 3) Substrate concentration should be set at the approximate KM of the parental variant(s), subject to the sensitivity of the assay. High substrate concentration obscures sensitivity to the inhibitor and reduces stringency for capturing improvements in KM. Depending on the necessity for speed, there exists opportunity for customizing enzyme and inhibitor concentrations. […] The rapid method was repeated for those and obtained data that correlated better with data obtained by substrate saturation analysis. For screening purposes however, that correlation step is not necessary. Conditions can be set so that variants with a pre-determined minimal fitness level are accurately quantified.
In Table 15, parameters above the heavy line for the rapid method were obtained under standard conditions. For variants shown below the heavy line, the rapid analysis was repeated with enzyme or glyphosate concentrations adjusted as needed to generate sufficient signal within the limits for linear initial rates.

T1 sequence (O24566 entry or part of it P106L): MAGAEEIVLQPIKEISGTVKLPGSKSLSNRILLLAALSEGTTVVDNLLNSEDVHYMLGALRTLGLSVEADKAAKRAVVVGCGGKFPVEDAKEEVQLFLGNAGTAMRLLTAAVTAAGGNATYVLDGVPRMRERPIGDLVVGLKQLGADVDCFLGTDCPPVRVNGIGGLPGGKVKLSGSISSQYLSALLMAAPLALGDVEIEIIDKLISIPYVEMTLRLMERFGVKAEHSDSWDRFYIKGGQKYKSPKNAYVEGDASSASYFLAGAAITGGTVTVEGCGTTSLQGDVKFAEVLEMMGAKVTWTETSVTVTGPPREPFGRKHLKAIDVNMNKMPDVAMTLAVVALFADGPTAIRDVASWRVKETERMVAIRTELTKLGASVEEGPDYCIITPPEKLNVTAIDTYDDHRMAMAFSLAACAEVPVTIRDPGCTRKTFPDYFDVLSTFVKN

Structure (SMILES): O=C(O)CNCP(=O)(O)O [glyphosate, N-phosphonomethylglycine]
- hairy root formation ([1]; EPSPS driven by weaker promoters (UBQ3 and native), with glyphosate): Hairy roots were not formed
- hairy root formation ([1]; UBQ10 promoter and H6, C1 and C2 variants, 25 uM glyphosate): generated hairy roots
- root growth ([1]; native EPSPS (UBQ10 promoter), 25 uM glyphosate): no root growth
- (kcat/KM)*KI ([2]; rapid method repeated, [E] 0.014 uM, [Gly] 10 uM): 91
- (kcat/KM)*KI ([2]; rapid method, [E] 0.07 uM, [Gly] 1000 uM): 111
